Measurements taken from article PMC7619385 (ACS infectious diseases, 2025).
Where two headings read alike, the source gives them in different places.

Legend:
LmxCLK1 [1] = target: T1, LmxCLK1 (Leishmania mexicana, UniProt E9AMP2); experiment: biochemical; type: binding
T1 sequence (E9AMP2 1-422): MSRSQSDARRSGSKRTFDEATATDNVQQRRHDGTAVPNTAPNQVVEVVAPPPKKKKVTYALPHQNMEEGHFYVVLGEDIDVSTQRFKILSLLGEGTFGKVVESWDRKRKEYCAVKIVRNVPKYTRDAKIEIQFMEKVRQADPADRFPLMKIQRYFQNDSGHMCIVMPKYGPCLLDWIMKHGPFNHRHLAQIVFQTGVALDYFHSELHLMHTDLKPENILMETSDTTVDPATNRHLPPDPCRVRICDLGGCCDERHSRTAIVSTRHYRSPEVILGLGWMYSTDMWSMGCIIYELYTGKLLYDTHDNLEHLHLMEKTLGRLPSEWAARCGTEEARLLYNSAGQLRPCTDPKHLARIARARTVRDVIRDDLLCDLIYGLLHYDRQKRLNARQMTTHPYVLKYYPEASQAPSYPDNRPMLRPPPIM

LmxCLK1 [2] = target: T1, LmxCLK1; experiment: HTRF (TR-FRET) enzymatic inhibition assay; type: biochemical
Description: The enzymatic activity of full-length LmxCLK1 was monitored using a homogenous time-resolved fluorescence (HTRF)-based assay (HTRF KinEASE-STK S3 kit, Cisbio - catalog #62ST3PEC). For IC50 value determination, the data from two independent experiments performed in duplicate were fitted to the sigmoidal dose-response (variable slope) equation available in GraphPad Prism (v. 9.1.0). Detailed information for IC50 determination can be found in the Supplementary Information. […]
min at 4 °C. The supernatants were loaded onto an immobilized metal affinity chromatography (IMAC) […]
column (5 mL HisTrap FF Crude, GE Healthcare) and washed in Binding Buffer containing 30 mM imidazole.
Proteins were eluted in Binding Buffer with 300 mM imidazole. To remove the N-terminal 6xHis-tag […]
introduced during cloning (see above), proteins were incubated with TEV protease during dialysis […]
overnight at 4 °C into Gel Filtration Buffer (20 mM HEPES, 500 mM NaCl, 5% glycerol, 0.5 mM TCEP).
Recombinant proteins were further purified using reverse affinity chromatography on Ni-Sepharose […]
followed by gel filtration (Superdex 200 16/60, GE Healthcare), and concentrated using 10 kDa molecular […]
weight cut-off centrifugal concentrators (Millipore). LmxCLK1 (CQMED clone ID LmxCLK1-cb001) and […]
NLuc-LmxCLK1 (CQMED clone ID LmxCLK1-cb021) proteins were stored at -80 °C for in vitro biochemical […]
assays at 0.5 mg/mL and 0.7 mg/mL, respectively, measured by UV absorbance with a NanoDrop […]
spectrophotometer (Thermo Scientific), using the calculated molecular weight and estimated extinction […]
Purified proteins were further analyzed by LC-ESI-MS in a XEVO G2 Sx Q-ToF (Waters). Expected intact […]
masses for LmxCLK1 (CQMED clone ID LmxCLK1-cb001) and NLuc-LmxCLK1 (CQMED clone ID LmxCLK1- […]
cb021) were: 48,791.14 Da and 68,411.71 Da, respectively.
We monitored the activity of recombinantly produced full-length LmxCLK1 (CQMED clone ID LmxCLK1- […]
cb001) using a commercially-available homogenous time-resolved fluorescence (HTRF)-based assay (HTRF […]
KinEASE-STK S3 kit, Cisbio - catalog #62ST3PEC). Assay development included establishing reaction […]
parameters (optimal enzyme concentration, ATP concentration and reaction time).
(15-point, 3-fold serial dilution and a highest final assay concentration of 10 µM) prior to transfer (100 nL) […]
to a black, 384-well, round bottom, low-volume plate (Corning catalog #4514) containing a mixture of […]
LmxCLK1 and peptide substrate in kinase buffer using an automated liquid transferring system (CYBIO […]
FeliX®, Analytik Jena, Jena, Germany). […]
started by the addition of ATP and allowed to proceed for 75 min at 30 °C. Final concentrations for reaction […]
components were: 6 nM LmxCLK1, 66 µM ATP (10× KM,ATP), 1 µM peptide (STK Substrate 3-biotin, Cisbio).
All components were prepared in 1× Enzymatic Buffer (Cisbio) supplemented with 5 mM MgCl2, 1 mM […]
DTT, 0.01% Tween-20. The reaction was stopped by the addition of Detection Buffer containing EDTA, […]
Fluorescence signal was measured using a CLARIOstar microplate reader (BMG LABTECH) with excitation […]
at 330 nm, emission at 665 nm (acceptor) and 620 nm (donor), integration delay 60 μs and integration […]
time 400 μs. All reactions were done in duplicate and two independent experiments were performed.
Enzyme activity was expressed as the background-corrected HTRF ratio of the acceptor and donor […]
emission signals according to equation [1]:
(also on this page, place not known: imi dazole. Ni -Sepharose background -corrected (665/620)=3Acceptor!!"#$ −backgroundD.10,000 Downloaded from http://pubs.acs.org/aidcbc/article-supplement/3662943/pdf/id5c00610_si_001/ by guest on 07 August 2026) […]
where background is the background fluorescence obtained in the absence of enzyme (blank).
To determine IC50 values, the background-corrected HTRF ratio was plotted as a function of test

NLuc::LmxCLK1 = NLuc::LmxCLK1 (Leishmania mexicana, UniProt E9AMP2); experiment: cell-based; type: cell-based; settings: for receptor occupancy at 10 µM: read-out: Target occupancy Average
Outline: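 NanoBRET tracer displacement in live cells expressing NLuc-tagged CLK1, test compounds at 10 µM fixed, 1% DMSO final. Acceptor/donor emission (610/460 nm) ratio gives mBRET, converted to blank-corrected probe occupancy (%); probe KD from single-site saturation binding fits.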

[3] = purified LmxCLK1, 30-min pre-incubation, 66 µM ATP, read-out: IC50 enzymatic inhibition of LmxCLK1

Row | Structure (SMILES) | ΔTm at 10 µM (LmxCLK1 [1]; read-out: ΔTm Average) [°C] | ΔTm at 10 µM (LmxCLK1 [1]; read-out: ΔTm Run 1) [°C] | ΔTm at 10 µM (LmxCLK1 [1]; read-out: ΔTm Run 2) [°C] | IC50 (LmxCLK1 [2]; [3]) [nM] | IC50 (NLuc::LmxCLK1) [nM] | receptor occupancy at 10 µM (NLuc::LmxCLK1) [%] | ΔTm at 10 µM (LmxCLK1 [1]; DSF, 10 µM compound, 2 µM LmxCLK1, Run 1, read-out: ΔTm Run 1) [°C] | ΔTm at 10 µM (LmxCLK1 [1]; DSF, 10 µM compound, 2 µM LmxCLK1, Run 2, read-out: ΔTm Run 2) [°C] | ΔTm at 10 µM (LmxCLK1 [1]; DSF, 10 µM compound, 2 µM LmxCLK1, mean of two runs, read-out: ΔTm Average) [°C] | IC50 (LmxCLK1 [2]; IC50 enzymatic inhibition of LmxCLK1, purified LmxCLK1, 30-min pre-incubation, 66 µM ATP) [nM] | IC50 (LmxCLK1 [2]; pre-incubation 0 min, read-out: Time-dependent IC50) [nM] | IC50 (LmxCLK1 [2]; pre-incubation 5 min, read-out: Time-dependent IC50) [nM] | IC50 (LmxCLK1 [2]; pre-incubation 10 min, read-out: Time-dependent IC50) [nM] | IC50 (LmxCLK1 [2]; pre-incubation 15 min, read-out: Time-dependent IC50) [nM] | IC50 (LmxCLK1 [2]; pre-incubation 30 min, read-out: Time-dependent IC50) [nM]
1 | C=CC(=O)Nc1cccc(Oc2nc(Nc3ccc(N4CCN(C)CC4)cc3)ncc2Cl)c1 [WZ3146] | 14.3 ± 0.1 | 14.2 | 14.4 | 340 | 13600 | 35.2 ± 3.3 |  |  |  |  |  |  |  |  | 
2 | Cc1ccc(C(=O)Nc2ccc(CN3CCN(C)CC3)c(C(F)(F)F)c2)cc1C#Cc1cnc2[nH]ncc2c1 [GZD824] |  |  |  |  | 4600 | 46.5 ± 3.2 | 17.1 | 17.7 | 17.4 ± 0.3 | 29.9 |  |  |  |  | 
3 | C=CC(=O)Nc1cccc(Sc2nc(Nc3ccc(N4CCN(C)CC4)cc3)ncc2Cl)c1 [WZ8040] | 14.8 ± 0.1 | 14.7 | 15 | 204 | 2900 | 60.8 ± 0.8 |  |  |  |  | 1660 | 940 | 911 | 862 | 759
